Assay results published in patent EP0073711A1, “Salts of 2-oxopentane-1,5-dicarboxylic acid, their preparation and pharmaceutical preparations containing these salts” (S.A. D[…] LEBAS (Société Anonyme), priority 1981, dated 1983).

Key:
[1] = Tests on the acid lithium salt (pharmacological and therapeutic properties); conditions: compared with the calcium salt
[2] = Solubility in water at 20°C; assay type: physicochemical; conditions: lithium salt
[3] = system: système nerveux central de la souris; experiment: Reduction of reserpine hypothermia; assay type: in vivo; conditions: doses between 0,5 and 1g par kg per os
Text: (§1) Activité du sel acide de calcium de l'acide 2-oxo-1,5- pentane dioîque sur le système nerveux central de la souris.
5. Réduction de l'hypothermie réserpinique

rats = experiment: 30-day daily treatment toxicity; assay type: in vivo; conditions: daily treatment 30 days, doses up to 1g par kg et par jour
Text: Un groupe de rats a été soumis à un traitement quotidien par le sel acide de calcium de l'acide 2-oxo-1,5- pentane dioique pendant une durée de 30 jours.

[4] = Pharmacokinetic study with C14-labelled salt; assay type: in vivo; conditions: rats, C14-labelled molecule
Text: Dans cette étude, on a administré à des rats le sel conforme à l'invention dont la molécule a été marquée au C^14 radioactif.

[5] = system: système nerveux central de la souris; experiment: Reduction of reserpine ptosis; assay type: in vivo; conditions: souris, 0,5g par kg à 1g par kg per os, 1 hour after administration
Text: as §1
1. Réduction du ptosis réserpinique

[6] = system: système nerveux central de la souris; experiment: Rotarod test (rotating cylinder) after chlorpromazine; assay type: in vivo; conditions: from the dose of 0,5g par kg
Text: as §1
3. Test du "rotarod" (cylindre tournant)
Dans ce test, la souris tourne sur un cylindre animé d'un mouvement rotatif, perd l'équilibre et tombe après administration de chlorpromazine (CPZ).

patients = experiment: Clinical study: memory disorders, neurotic (anxiophobic) and psychasthenic states, versus placebo; assay type: in vivo, homme; conditions: sixty patients, 4g daily in two doses versus placebo
Text: 2. Correction des troubles de la mémoire, des états névrotiques (anxiophobiques), et des états psychasténiques

[7] = system: système nerveux central de la souris; experiment: Antagonism of the muscle-relaxant action of chlorpromazine (CPZ); assay type: in vivo
Text: as §1
2. Antagonisme de l'action myorelaxante de la Chlorpromazine (CPZ)
La chlorpromazine induit une myorelaxation chez la souris. On constate une réduction de 37,5% pour une dose de 1g par kg et une réduction de 62,5% pour une dose de 2g par kg.

[8] = system: système nerveux central de la souris; experiment: Catalepsy (prochlorpémazine-induced catatonia); assay type: in vivo; conditions: catalepsy test
Text: as §1
Ce test a montré que le sel conforme à l'invention s'oppose à l'activité catatonique de la prochlorpémazine.

[9] = system: système nerveux central de la souris; experiment: Hole-board test; assay type: in vivo
Text: as §1
6. Test de la planche à trous
Sur une planche percée de trous, la souris, parcourant la surface, explore les divers trous rencontrés.

patient = experiment: Clinical test: corrective effects on hypoxia (chamber, 12,5% O2); assay type: in vivo, homme; conditions: acute dose 12g per os, hypoxia at 12,5% O2
Text: 1. Effets correctifs du sel acide de calcium de l'acide 2-oxo 1,5-pentane dioïgue sur l'hypoxie
Le test est réalisé sur le patient après le passage de celui-ci en caisson sous une hypoxie à 12,5% d'O2.

[10] = system: système nerveux central de la souris; experiment: Reduction of barbiturate narcosis; assay type: in vivo
Text: as §1
4. Réduction de la narcose barbiturique
Les résultats de ce test se sont avérés positifs, chez la souris.

[11] = system: système nerveux central de la souris; experiment: Motor activity; assay type: in vivo
Text: as §1
Ce test a montré que l'adminitration à des souris du sel conforme à l'invention, provoque une augmentation de leur activité motrice.

Substance | propriétés pharmacologiques et thérapeutiques [1] | solubilité dans l'eau à 20°C [2] | réduction de l'hypothermie réserpinique [3] | anomalie dans les constantes biologiques, hématologiques et les examens histologiques de différents viscères (rats) | passage à travers la barrière hématoencéphalique [4] | principal métabolite d'élimination [4] | conversion au niveau cérébral ([4]; in the brain) | ptosis réserpinique [5] | antagonisme du CPZ (rotarod) [6] | efficacité à l'égard des troubles de la mémoire, états névrotiques (anxiophobiques) et états psychasténiques (patients) | réduction (myorelaxation induite par la chlorpromazine) ([7]; dose 1g par kg) | réduction (myorelaxation induite par la chlorpromazine) ([7]; dose 2g par kg) | activité catatonique de la prochlorpémazine [8] | exploration (planche à trous) sous méprobamate ([9]; after a single treatment, méprobamate-induced decrease of exploration) | activité exploratrice (planche à trous) ([9]; after three days of pretreatment, versus control animals) | effet correctif sur l'hypoxie (patient) | réduction de la narcose barbiturique [10] | activité motrice [11]
sel acide de lithium de l'acide 2-oxo-1,5- pentane dioïque [sel de lithium acide] | comparables à celles du sel de calcium | 5,5 % en poids |  |  |  |  |  |  |  |  |  |  |  |  |  |  |  | 
sel de calcium acide de l'acide 2-oxo-1,5- pentane dioïque |  |  | résultats positifs | Aucune anomalie | passage de la molécule à travers la barrière hématoencéphalique | acide glutamique | conversion de celle-ci en acide gamma-aminobutyrique (GABA) | réduit de façon significative | antagonisme du CPZ | excellente efficacité | 37,5% | 62,5% | s'oppose | inhibition de la diminution d'exploration | augmentation notable | activateur efficace capable de contrebalancer l'effet d'une hypoxie | positifs | augmentation
